The values that follow come from US20260240794A1 (priority 2023, published 2026).

Read-outs that look alike come from different tables or passages of the source.

In one series the test system is mucous metaplasia. The series is described as follows: Mucous metaplasia in sensitized/challenged mice (photomicrographs). It counts as in vivo. To be noted: sensitized/challenged mice after treatment. The text has this:
FIG. 9 is a photomicrograph showing the occurrence of a mucus plug in the bronchus of a child with fatal asthma.

The next series concerns β-arrestin pathway. In words: Block of the β-arrestin pathway. To be noted: FIG. 13.
Another series concerns the target T1, β2-adrenergic receptor (Mus musculus, UniProt P18762).
T1 construct: rows headed: Apparent KD (in parentheses); other: 15 Minutes of drug treatment; KD of radioligand ICYP in lung membranes, not of the; Bmax (receptor density); lung membranes; Apparent KD (in parentheses); other: 28 Days of drug treatment; KD of radioligand ICYP in lung membranes, not of the dr
The series is described as follows: β-adrenergic receptor density by radioligand binding (ICYP) in lung membranes of treated asthmatic mice. As to conditions: for Kd: KD of radioligand ICYP in lung membranes, not of the drug, read-out: Apparent KD (in parentheses) (converted); for Bmax (receptor density): lung membranes.

Series [1] can be described thus: Pharmacokinetics of inhaled and oral airway drugs (literature). It counts as in vivo, humans. As to conditions: 6 children with asthma versus 11 healthy adults.
The conditions of series [2]: cited from earlier work.
Series [3] relates to asthmatic mice (ovalbumin-sensitized and ovalbumin-challenged). It counts as in vivo, Balb/cJ mice. To be noted: chronic treatment 7 days, 20 mg/kg (metoprolol 3x daily s.c., timolol in chow), versus historical controls.
For a further series, the system named is mucin 5AC. The series is described as follows: Level of mucin 5AC in smokers, nadolol versus placebo. It counts as in vivo, human. As to conditions: P<0.05.
The subject of a further series is Phospholipase C (PLC-β1). In words: Ratio of phospholipase C to actin by immunoblotting in cultured tracheal smooth muscle cells. It counts as cell-based. To be noted: cells from asthmatic mice, chronic nadolol high dose treatment. From the text: Cultured tracheal smooth muscle cells were obtained from mice exposed to the following treatments: NS/NC=nonasthmatic, non-challenged mice; S/C=asthmatic mice; Sal.Ac=asthmatic mice, acute salbutamol treatment; Sal.Ch=asthmatic mice, chronic salbutamol treatment; Nad.Ac=asthmatic mice, acute nadolol high dose treatment; and Nad.Ch=asthmatic mice, chronic nadolol high dose treatment.
After airway function experiments, the tracheas were surgically removed from anesthetized mice that had been treated with drugs or vehicle. The tracheas were minced and the cells plated and grown in culture. The smooth muscle cells grow faster and take over the culture dish. The cells were grown in medium which contained the drugs used in the treatment or vehicle controls. Phospholipase C (PLC-(β1) was determined by immunoblotting with an antibody specific for the enzyme. Actin was used as a loading control and the amount of PLC-β1 was expressed as a ratio of phospholipase C to actin.
(In general: Immunoblotting shows a protein as a band on a membrane.)

A further series concerns cAMP accumulation. In words: cAMP accumulation. A general note: Changes in cAMP serve as a functional read-out for many G protein-coupled receptors.
The conditions of series [4]: cited from earlier work. The source holds these as a separate data set.

T1 sequence (P18762 whole entry): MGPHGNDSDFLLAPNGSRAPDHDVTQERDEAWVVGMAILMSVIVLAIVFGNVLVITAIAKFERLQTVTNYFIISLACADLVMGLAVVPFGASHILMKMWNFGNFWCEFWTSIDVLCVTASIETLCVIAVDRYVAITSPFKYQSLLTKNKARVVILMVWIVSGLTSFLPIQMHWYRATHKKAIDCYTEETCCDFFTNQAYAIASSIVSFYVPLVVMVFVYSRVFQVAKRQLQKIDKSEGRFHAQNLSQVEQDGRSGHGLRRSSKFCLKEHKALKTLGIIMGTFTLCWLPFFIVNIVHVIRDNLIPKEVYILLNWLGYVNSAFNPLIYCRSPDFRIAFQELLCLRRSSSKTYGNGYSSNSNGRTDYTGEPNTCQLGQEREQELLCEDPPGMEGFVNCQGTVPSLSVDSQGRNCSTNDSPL

As for `C=CCc1ccccc1OCC(O)CNC(C)C` (stereo not drawn) [alprenolol], the mucous metaplasia result with mucous metaplasia is “no improvement in mucous metaplasia”. For the same compound, the “block of the β-arrestin pathway” value with β-arrestin pathway is on record as “did not block the β-arrestin pathway”. The Kd on β2-adrenergic receptor (15 Minutes of drug treatment) was 0.454 nM. For the same compound, at β2-adrenergic receptor (28 Days of drug treatment), the Kd is 0.291 nM and the “Bmax (receptor density)” value is given as 179.2 ± 53.05 femtomoles of sites per milligram of protein.
Turning to `CCCC1O[C@@H]2C[C@H]3[C@@H]4CCC5=CC(=O)C=C[C@]5(C)[C@H]4[C@@H](O)C[C@]3(C)[C@]2(C(=O)CO)O1` (stereo partly drawn) [budesonide], the “plasma clearance of the two enantiomers per kilogram of bodyweight, excess in children over adults” value in [1] was “about 50%”. Also, in series [2] (in vivo), the elimination half-life was 2.8 ± 1.1 h and the plasma clearance is 84 ± 27 L/h.
`COc1ccccc1OCCNCC(O)COc1cccc2[nH]c3ccccc3c12` (stereo not drawn) [carvedilol]: the “block of the β-arrestin pathway” value in the series on β-arrestin pathway is “did not block the β-arrestin pathway”. In addition, the Kd is 0.565 nM on β2-adrenergic receptor (15 Minutes of drug treatment) and 1.44 nM at β2-adrenergic receptor (28 Days of drug treatment). In addition, the “Bmax (receptor density)” value on β2-adrenergic receptor (28 Days of drug treatment) is given as 904.1 ± 43.46 femtomoles of sites per milligram of protein.
Regarding `COCCc1ccc(OCC(O)CNC(C)C)cc1` (stereo not drawn) [metoprolol], the “airway hyperresponsiveness (Raw)” value in [3] is on record as “effective in reducing airway hyperresponsiveness”.
Turning to `CC(C)(C)NCC(O)COc1cccc2c1CC(O)C(O)C2` (stereo not drawn) [nadolol], the “level of mucin 5AC” value in the series with mucin 5AC is recorded as “reduces the accumulation of the mucus-associated protein mucin 5AC”. The mucous metaplasia entry in the series on mucous metaplasia is recorded as “nearly complete elimination of mucous metaplasia”. For the same compound, in the series on Phospholipase C (PLC-β1), the “ratio of phospholipase C (PLC-β1) to actin” value is reported as “significantly decreases the activity of phospholipase C”. Besides, the “block of the β-arrestin pathway” value in the series on β-arrestin pathway is “blocks this pathway”. Further, the Kd on β2-adrenergic receptor (15 Minutes of drug treatment) is 0.695 nM; on β2-adrenergic receptor (28 Days of drug treatment) it was 1.59 nM. Further, the “Bmax (receptor density)” value at β2-adrenergic receptor (28 Days of drug treatment) is listed as 785.5 ± 154.8 femtomoles of sites per milligram of protein. In the series on cAMP accumulation, the cAMP accumulation entry is reported as “not associated with cAMP accumulation”. Further, in series [4], the lipid solubility result is “low lipid solubility”.
On to `CC(C)NCC(O)COc1cccc2ccccc12` (stereo not drawn) [propranolol], for which the “block of the β-arrestin pathway” value in the series on β-arrestin pathway is recorded as “did not block the β-arrestin pathway”.
`CC(C)(C)NCC(O)c1ccc(O)c(CO)c1` (stereo not drawn) [salbutamol]: at β2-adrenergic receptor (28 Days of drug treatment), the “Bmax (receptor density)” value is 97.0 ± 23.02 femtomoles of sites per milligram of protein.
For the compound `CC(C)(C)NCC(O)c1cc(O)cc(O)c1` (stereo not drawn) [terbutaline], in series [2] (from an MDI), the “bioavailability with the oral component (swallowed fraction of the dose) added” value is on record as 16.5% and the mean pulmonary bioavailability is given as 9.1%.
With `CC(C)(C)NC[C@H](O)COc1nsnc1N1CCOCC1` [timolol], in series [3], the “airway hyperresponsiveness (Raw)” value was “effective in reducing airway hyperresponsiveness”.
